Tests used:
HER2YVMA = HER2YVMA (Homo sapiens, UniProt P04626, INS775YVMA); test: Enzymatic assay HER2YVMA (method b); type: biochemical; set-up: purchased Viva biotech, Shanghai, China custom purification; settings: [HER2YVMA]=5 nM, [ATP]=25 μM, [Peptide 22]=1 μM
Procedure: (§1) A 2× stock solution of HER2 WT (ERBB2 0108-0000-1; ProQinase, Freiburg, Germany) corresponding to method a, was prepared as described below. Alternatively, a 2× stock solution of HER2YVMA (custom purification; Viva biotech, Shanghai, China) corresponding to method b, was prepared as described below. For method c, a 2× stock of EGFR (ERBB1 PR7295B, Thermo Fisher, Carlsbad, CA) was prepared as described below. All 2× solutions were prepared in buffer containing 50 mM HEPES, pH 7.5, 10 mM MnCl2, MgCl2, 0.005% Tween 20, 1 mM TCEP. 25 ul of 2× enzyme solution was added to a Seahorse low volume 384-well polypropylene assay plate (201288-100, Seahorse Bioscience, Chicopee, MA) containing 1 μl of compound serially diluted in 50% DMSO. To initiate the reaction, 25 μl of solution containing 2× final concentration of ATP and ProfilerPro Peptide 22 (760366, Perkin Elmer Hopkinton, MA) was added to each well. The reactions were separated on an LC3000 (Caliper Life Sciences) or a LabChip EZReader (Perkin Elmer) in kinetic mode.
(§2) At the conclusion of each assay, the data were exported from the instrument as a .rda file (LC3000) and processed in proprietary software, EZReviewer, which determines the percent of substrate converted to product within a given cycle as (P/P+S)*100 by measuring the amplitude of substrate and product peaks. Cycle time varied with amount of compounds tested between 8 and 12 cycles. Initial velocity (0-3600 s) from each reaction was determined from the slope of a plot of percent conversion at each cycle versus time (seconds). Percent inhibition was determined by dividing the slope of each reaction by the uninhibited control using 100*(1-(x/uninhibited control)). IC50 estimates were obtained by plotting the concentration of inhibitor versus percent inhibition in GraphPad Prism (GraphPad Software, San Diego, CA) using log[inhibitor] versus Response (Variable Slope Model); Y=Min+((Max-Min)/(1+((IC50/x)^Hillslope)))
(§3) • a) [HER2 WT]=12.5 nM, [ATP]=25 μM, [Peptide 22]=1 μM (ATP KMapp˜25 μM) • b) [HER2YVMA]=5 nM, [ATP]=25 μM, [Peptide 22]=1 μM (ATP KMapp˜15 μM) • c) [EGFR WT]=2 nM, [ATP]=1 mM, [Peptide 22]=1 μM (ATP KMapp˜25 μM)

EGFR WT = biological target: T1, EGFR WT (Homo sapiens, UniProt P00533); test: Enzymatic assay EGFR WT (method c); type: biochemical; settings: [EGFR WT]=2 nM, [ATP]=1 mM, [Peptide 22]=1 μM
T1 construct: purchased Thermo Fisher, Carlsbad, CA ERBB1 PR7295B
Procedure: as §1, §2, §3

HER2 WT = biological target: T2, HER2 WT (Homo sapiens, UniProt P04626); test: Enzymatic assay HER2 WT (method a); type: biochemical; settings: [HER2 WT]=12.5 nM, [ATP]=25 μM, [Peptide 22]=1 μM
T2 construct: purchased ProQinase, Freiburg, Germany ERBB2 0108-0000-1
Procedure: as §1, §2, §3

EGFR = EGFR (Homo sapiens, UniProt P00533); test: EGFR signaling (pEGFR Tyr1068/total EGFR MSD) in A431 cells; type: cell-based; set-up: endogenous in cells; host or cells: A431, N87; settings: for EC50: A431 cells, read-out: A431 pEGFR EC50; for Selectivity A431 EC50/BT474 EC50: ratio A431 pEGFR EC50 to BT474 pHER2 EC50
Procedure: (§4) In addition to the engineered cell lines, the following cell lines were used: BT474 (human breast carcinoma), N87 (human gastric carcinoma), NCI-H1781 (human lung adenocarcinoma), and A431 (human epidermoid carcinoma); all cell lines were obtained from the American Type Culture Collection (ATCC, Manassas, VA). NCI-H1781 were grown in complete RPMI 1640 (Life Technologies, Carlsbad, CA) supplemented with 15% fetal bovine serum (FBS, Life Technologies, Carlsbad, CA) and 1% Penicillin-Streptomycin (P/S, Life Technologies, Carlsbad, CA). N87 cells were grown in complete RPMI 1640 supplemented with 10% FBS and 1% P/S. BT474 and A431 cells were grown in DMEM (Life Technologies, Carlsbad, CA) supplemented with 10% FBS and 1% P/S. All cells were maintained and propagated in a humidified 5% CO2 incubator at 37° C.
A431 Cells were plated in 96-well tissue-culture treated plates in full media for 6 h, then starved with media containing 0.1% FBS for overnight. Media was replaced with low serum media (1% FBS) containing compound at 10, 3.3, 1.1, 0.37, 0.12, 0.041, 0.014, 0.005 μM or DMSO control (0.1%). Cells were incubated for 1.5 hr, then stimulated with 100 ng/mL human EGF (PeproTech, Rocky Hill, NJ) for 10 minutes. Cells were washed with cold PBS, and lysed for 30 min on ice in complete MSD lysis buffer (prepared as described in HER2 Signaling Method); lysates were stored at −70° C. until further analysis. EGFR signaling was evaluated using phospho (Tyr 1068)/total EGFR whole cell lysate kit (Meso-Scale Discovery, Gaithersburg, MD). The phospho EGFR signal was normalized to total EGFR for each sample; results are reported as % DMSO control. The normalized data was fitted using a sigmoidal curve analysis program (Graph Pad Prism version 6) with variable Hill slope to determine EC50 values. The results are provided in Table 4, under column titled “A431-pEGFR EC50”.

[1] = biological target: T3, HER2 wildtype (WT) protein (Homo sapiens, UniProt P04626); test: HER2 signaling (pHER2 Tyr1248/total HER2 MSD) in BT474 cells; type: cell-based; settings: 1.5 hr compound, 1% FBS
T3 construct: BT474 and N87 cell lines which endogenously overexpress the HER2 wildtype (WT) protein; endogenous in cells; host or cells: BT474, N87
Procedure: as §4
HER2 signaling was assessed in BT474 and N87 cell lines which endogenously overexpress the HER2 wildtype (WT) protein, in NCI-H1781 cells which endogenously expresses a HER2 mutant protein containing a VC insertion in the kinase domain (HER2VC or G776delinsVC), and in engineered cell lines transduced to express the Her2 mutant protein containing the YVMA insertion (Hek293-HER2YVMA and BEAS2B-HER2YVMA).
BT474, N87, and NCI-H1781 were plated in 96-well tissue-culture treated plates (Corning Costar, Sigma-Aldrich) in full media and incubated overnight. Hek293-HER2YVMA and BEAS2B-HER2YVMA cells were plated in 96-well poly-D-lysine treated plates (BD Bioscience, San Jose, CA). For treatment with test compounds, the media was replaced with corresponding low serum media (1% FBS) containing test compound at 1.1, 0.37, 0.12, 0.041, 0.014, 0.005, 0.0014, 0.0005 μM or DMSO control (0.1%). Cells were incubated with compound for 1.5 hr at 37° C. After compound treatment, the media was removed and cells were lysed for 30 min on ice in complete MSD lysis buffer (prepared using MSD base lysis buffer (Meso-Scale Discovery) supplemented with cOmplete, EDTA-free Protease inhibitor cocktail (Roche), Phosphatase Inhibitor Cocktails 2 and 3 (Sigma-Aldrich), and 1 mM PMSF (Sigma-Aldrich)). Lysates were stored at −70° C. until further analysis.
HER2 signaling was evaluated using phospho (Tyr1248)/total ErbB2 whole cell lysate MSD plates (Meso-Scale Discovery, Gaithersburg, MD). The phospho HER2 signal was normalized to total HER2 for each sample; results are reported as % DMSO control. The normalized data was fitted using a sigmoidal curve analysis program (Graph Pad Prism version 6) with variable Hill slope to determine EC50 values.
The HER2 signaling results are provided in Table 4, under columns titled “BT474-pHER2 EC50”, “N87-pHER2 EC50”, and “NCI-H1781-pHER2 EC50”. Hek293-HER2YVMA ins fall under the heading “HEKYVMA-pHER2 EC50”, Ba/F3 HER2YVMA fall under the heading “Ba/F3 YVMA-pHER2 EC50” and BEAS2B-HER2YVMA fall under the heading “BEAS2B YVMA-pHER2 EC50”.

EGFR, sequence (P00533 25-1210): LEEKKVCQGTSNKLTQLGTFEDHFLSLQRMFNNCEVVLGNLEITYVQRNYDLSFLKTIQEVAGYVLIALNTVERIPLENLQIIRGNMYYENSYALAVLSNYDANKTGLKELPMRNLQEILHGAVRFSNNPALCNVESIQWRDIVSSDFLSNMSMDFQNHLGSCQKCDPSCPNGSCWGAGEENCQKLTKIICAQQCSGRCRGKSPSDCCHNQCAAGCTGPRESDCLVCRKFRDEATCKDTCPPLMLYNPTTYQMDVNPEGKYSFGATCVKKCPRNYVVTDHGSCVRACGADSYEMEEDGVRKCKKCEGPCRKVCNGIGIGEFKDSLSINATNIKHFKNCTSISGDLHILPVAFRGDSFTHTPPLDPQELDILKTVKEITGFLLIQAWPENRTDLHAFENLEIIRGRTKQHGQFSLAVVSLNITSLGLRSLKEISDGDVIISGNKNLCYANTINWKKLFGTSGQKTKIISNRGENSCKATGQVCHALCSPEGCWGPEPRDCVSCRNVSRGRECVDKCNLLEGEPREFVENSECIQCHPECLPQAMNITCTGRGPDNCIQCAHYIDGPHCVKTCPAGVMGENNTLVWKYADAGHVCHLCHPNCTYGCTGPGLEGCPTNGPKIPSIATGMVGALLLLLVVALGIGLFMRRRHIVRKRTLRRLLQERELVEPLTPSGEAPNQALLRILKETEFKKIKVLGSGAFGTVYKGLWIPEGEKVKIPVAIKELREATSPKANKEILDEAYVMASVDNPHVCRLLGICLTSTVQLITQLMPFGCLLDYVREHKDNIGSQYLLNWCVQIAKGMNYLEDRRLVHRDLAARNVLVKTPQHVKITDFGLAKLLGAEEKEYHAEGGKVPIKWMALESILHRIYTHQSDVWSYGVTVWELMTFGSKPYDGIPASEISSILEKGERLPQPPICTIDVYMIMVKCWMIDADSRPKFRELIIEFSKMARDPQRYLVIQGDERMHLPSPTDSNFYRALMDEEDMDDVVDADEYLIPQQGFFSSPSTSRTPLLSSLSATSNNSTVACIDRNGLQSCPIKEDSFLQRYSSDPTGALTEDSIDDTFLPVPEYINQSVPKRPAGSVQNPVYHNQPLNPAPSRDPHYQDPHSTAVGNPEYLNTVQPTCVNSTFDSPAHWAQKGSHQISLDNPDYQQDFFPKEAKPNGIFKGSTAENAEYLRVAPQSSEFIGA
T1 sequence (P00533 25-1210): as above
T2 sequence (P04626 23-1255): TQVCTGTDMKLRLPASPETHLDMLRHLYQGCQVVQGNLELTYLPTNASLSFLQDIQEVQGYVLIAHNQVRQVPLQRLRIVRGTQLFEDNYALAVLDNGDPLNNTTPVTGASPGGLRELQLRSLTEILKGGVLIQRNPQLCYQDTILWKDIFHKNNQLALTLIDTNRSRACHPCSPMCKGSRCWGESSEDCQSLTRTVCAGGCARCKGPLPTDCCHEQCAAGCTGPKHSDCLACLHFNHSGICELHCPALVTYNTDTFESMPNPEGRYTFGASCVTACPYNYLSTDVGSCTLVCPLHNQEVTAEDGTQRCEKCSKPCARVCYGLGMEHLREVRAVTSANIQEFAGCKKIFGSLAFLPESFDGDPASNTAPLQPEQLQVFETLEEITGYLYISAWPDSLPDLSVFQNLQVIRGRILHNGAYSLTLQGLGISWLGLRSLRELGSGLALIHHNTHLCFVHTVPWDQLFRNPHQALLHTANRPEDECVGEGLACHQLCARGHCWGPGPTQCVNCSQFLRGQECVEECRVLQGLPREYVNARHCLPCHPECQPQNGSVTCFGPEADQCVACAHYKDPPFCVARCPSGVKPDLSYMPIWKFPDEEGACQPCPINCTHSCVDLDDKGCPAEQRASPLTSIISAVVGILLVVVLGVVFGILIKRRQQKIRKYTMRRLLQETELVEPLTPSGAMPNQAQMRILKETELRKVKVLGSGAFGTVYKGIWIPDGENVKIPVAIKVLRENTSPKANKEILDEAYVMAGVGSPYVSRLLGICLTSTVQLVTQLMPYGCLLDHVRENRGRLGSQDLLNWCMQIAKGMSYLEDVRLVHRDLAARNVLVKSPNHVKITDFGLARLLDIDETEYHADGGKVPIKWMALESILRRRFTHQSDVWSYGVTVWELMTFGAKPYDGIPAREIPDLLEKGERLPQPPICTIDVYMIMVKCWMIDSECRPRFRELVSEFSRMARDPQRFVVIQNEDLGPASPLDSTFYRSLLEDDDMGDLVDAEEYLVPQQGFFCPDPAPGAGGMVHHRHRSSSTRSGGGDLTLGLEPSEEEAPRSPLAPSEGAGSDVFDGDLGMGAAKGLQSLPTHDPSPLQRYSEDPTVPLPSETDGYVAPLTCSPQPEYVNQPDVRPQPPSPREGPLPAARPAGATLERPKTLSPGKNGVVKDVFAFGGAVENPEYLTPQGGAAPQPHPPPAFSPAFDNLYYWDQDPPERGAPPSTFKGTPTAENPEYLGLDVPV
T3 sequence (P04626 23-1255): as above

| SMILES | IC50 (HER2YVMA) [nM] | IC50 (EGFR WT) [nM] | IC50 (HER2 WT) [nM] | EC50 (EGFR) [nM] | Selectivity A431 EC50/BT474 EC50 (EGFR) | EC50 [1] [nM] |
| --- | --- | --- | --- | --- | --- | --- |
| C=CC(=O)N1CCc2c(sc3ncnc(Nc4ccc(Oc5ccc6ncnn6c5)c(C)c4)c23)C1 [Compound 2, 1-(4-((4-([1,2,4]triazolo[1,5-a]pyridin-6-yloxy)-3-methylphenyl)amino)-5,8-dihydropyrido[4′,3′:4,5]thieno[2,3-d]pyrimidin-7(6H)-yl)prop-2-en-1-one] | < 100 | 1000 to 10000 | < 100 | – | – | – |
| Cc1ccc(Oc2ccc(Nc3ncnc4sc5c(c34)CCN(C(=O)/C=C/CN3CC4CCC(C4)C3)C5)cc2C)cn1 [Compound 27] | – | 1000 to 10000 | – | < 100 | B (B: ≥ 20 and < 100) | – |
| Cc1ccc(Oc2ccc(Nc3ncnc4sc5c(c34)CCN(C(=O)/C=C/CN3CCOC(C)(C)C3)C5)cc2C)cn1 [Compound 28] | 100 to 1000 | > 10000 | < 100 | < 100 | C (C: ≥ 10 and < 20) | < 100 |
| Cc1ccc(Oc2ccc(Nc3ncnc4sc5c(c34)CCN(C(=O)/C=C/CN3CCOCC3(C)C)C5)cc2C)cn1 [Compound 29] | < 100 | > 10000 | < 100 | < 100 | C (C: ≥ 10 and < 20) | < 100 |
| Cc1ccc(Oc2ccc(Nc3ncnc4sc5c(c34)CCN(C(=O)/C=C/CN3CCOC4(CCC4)C3)C5)cc2C)cn1 [Compound 30] | 100 to 1000 | > 10000 | < 100 | 100 to 1000 | A (A: ≥100) | < 100 |
| Cc1ccc(Oc2ccc(Nc3ncnc4sc5c(c34)CCN(C(=O)/C=C/CN3CCOCC34CCC4)C5)cc2C)cn1 [Compound 31] | 100 to 1000 | > 10000 | < 100 | 100 to 1000 | D (D: ≥ 5 and < 10) | < 100 |
| Cc1ccc(Oc2ccc(Nc3ncnc4sc5c(c34)CCN(C(=O)/C=C/CN3CCOC[C@@H]3C)C5)cc2C)cn1 [Compound 32] | 100 to 1000 | > 10000 | < 100 | 100 to 1000 | B (B: ≥ 20 and < 100) | < 100 |
| Cc1ccc(Oc2ccc(Nc3ncnc4sc5c(c34)CCN(C(=O)/C=C/CN3CC4CC(C4)C3)C5)cc2C)cn1 [Compound 36] | < 100 | 1000 to 10000 | < 100 | < 100 | D (D: ≥ 5 and < 10) | < 100 |
| Cc1cc(Nc2ncnc3sc4c(c23)CCN(C(=O)/C=C/CN2CCOC[C@@H]2C)C4)ccc1Oc1ccc2ncnn2c1 [Compound 79] | 100 to 1000 | > 10000 | 100 to 1000 | – | – | – |
| C[C@H]1COCCN1C/C=C/C(=O)N1CCc2c(sc3ncnc(Nc4ccc(Oc5ccc6ncnn6c5)c(Cl)c4)c23)C1 [Compound 90] | 100 to 1000 | > 10000 | 100 to 1000 | – | – | – |
| Cc1ccc(Oc2ccc(Nc3ncnc4sc5c(c34)CCN(C(=O)/C=C/CN3CCN4CCC3CC4)C5)cc2C)cn1 [Compound 116] | 1000 to 10000 | > 10000 | 1000 to 10000 | – | – | – |

Source: patent US20240391931A1 (Bristol-Myers Squibb Company, priority 2021, published 2024)
